Measured values as given in patent publication US9505726B2, “Substituted biphenyl amides as P2X3 and P2X2/3 antagonists” (Roche Palo Alto LLC, priority 2009, dated 2016).

Biological target: T1, rat P2X3 receptor (Rattus norvegicus, UniProt P49654)
T1 construct: expressed in transfected cells; host or cells: CHO-K1
T1 sequence (P49654 1-397): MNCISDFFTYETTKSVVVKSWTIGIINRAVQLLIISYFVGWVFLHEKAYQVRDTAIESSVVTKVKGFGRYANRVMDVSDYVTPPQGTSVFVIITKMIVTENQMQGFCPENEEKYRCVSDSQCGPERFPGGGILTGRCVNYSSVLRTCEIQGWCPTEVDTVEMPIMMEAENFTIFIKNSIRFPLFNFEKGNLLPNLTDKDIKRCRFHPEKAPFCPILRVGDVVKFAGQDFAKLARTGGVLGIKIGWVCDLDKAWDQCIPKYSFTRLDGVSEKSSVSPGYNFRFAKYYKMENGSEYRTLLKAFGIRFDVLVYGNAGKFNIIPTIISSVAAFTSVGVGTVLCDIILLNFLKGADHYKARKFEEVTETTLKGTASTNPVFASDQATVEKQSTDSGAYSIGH
Assay: P2X3 FLIPR (Fluorometric Imaging Plate Reader) assay
Type: cell-based
Conditions: CHO-K1 cells transfected with cloned rat P2X3; agonist α,β-meATP 1 μM; Fluo-3 AM calcium fluorescence
Experimental: CHO-K1 cells were transfected with cloned rat P2X3 or human P2X2/3 receptor subunits and passaged in flasks. 18-24 hours before the FLIPR experiment, cells were released from their flasks, centrifuged, and resuspended in nutrient medium at 2.5×10^5 cells/ml. The cells were aliquoted into black-walled 96-well plates at a density of 50,000 cells/well and incubated overnight in 5% CO2 at 37° C. On the day of the experiment, cells were washed in FLIPR buffer (calcium- and magnesium-free Hank's balanced salt solution, 10 mM HEPES, 2 mM CaCl2, 2.5 mM probenecid; FB). Each well received 100 μl FB and 100 μl of the fluorescent dye Fluo-3 AM [2 μM final conc.]. After a 1 hour dye loading incubation at 37° C., the cells were washed 4 times with FB, and a final 75 μl/well FB was left in each well.
Test compounds (dissolved in DMSO at 10 mM and serially diluted with FB) or vehicle were added to each well (25 μl of a 4× solution) and allowed to equilibrate for 20 minutes at room temperature. The plates were then placed in the FLIPR and a baseline fluorescence measurement (excitation at 488 nm and emission at 510-570 nm) was obtained for 10 seconds before a 100 μl/well agonist or vehicle addition. The agonist was a 2X solution of α,β-meATP producing a final concentration of 1 μM (P2X3) or 5 μM (P2X2/3). Fluorescence was measured for an additional 2 minutes at 1 second intervals after agonist addition. A final addition of ionomycin (5 μM, final concentration) was made to each well of the FLIPR test plate to establish cell viability and maximum fluorescence of dye-bound cytosolic calcium. Peak fluorescence in response to the addition of α,β-meATP (in the absence and presence of test compounds) was measured and inhibition curves generated using nonlinear regression. PPADS, a standard P2X antagonist, was used as a positive control.

Row | Compound | P2X3 (pIC50 values for the P2X3 receptor)
1 | COCC(C)NC(=O)c1cc(NC(=O)c2cc(C)cs2)cc(-c2ccc(C)cc2)c1 (centres unmarked) [Compound 1, 4-Methyl-thiophene-2-carboxylic acid [5-(2-methoxy-1-methyl-ethylcarbamoyl)-4′-methyl-biphenyl-3-yl]-amide] | 6.31
2 | COCC(C)NC(=O)c1cc(NC(=O)c2ccc(C)s2)cc(-c2ccc(C)cc2)c1 (centres unmarked) [Compound 2, 5-Methyl-thiophene-2-carboxylic acid [5-(2-methoxy-1-methyl-ethylcarbamoyl)-4′-methyl-biphenyl-3-yl]-amide] | 5.2
3 | COCC(C)NC(=O)c1cc(NC(=O)c2ccco2)cc(-c2ccc(C)cc2)c1 (centres unmarked) [Compound 3, Furan-2-carboxylic acid [5-(2-methoxy-1-methyl-ethylcarbamoyl)-4′-methyl-biphenyl-3-yl]-amide] | 5.66
4 | COCC(C)NC(=O)c1cc(NC(=O)c2cccs2)cc(-c2ccc(C)cc2)c1 (centres unmarked) [Compound 4, Thiophene-2-carboxylic acid [5-(2-methoxy-1-methyl-ethylcarbamoyl)-4′-methyl-biphenyl-3-yl]-amide] | 5.51
5 | COCC(C)NC(=O)c1cc(NC(=O)c2ccccc2)cc(-c2ccc(C)cc2)c1 (centres unmarked) [Compound 5, 5-Benzoylamino-4′-methyl-biphenyl-3-carboxylic acid (2-methoxy-1-methyl-ethyl)-amide] | 5.69
6 | COCC(C)NC(=O)c1cc(NC(=O)c2ccccn2)cc(-c2ccc(C)cc2)c1 (centres unmarked) [Compound 6, Pyridine-2-carboxylic acid [5-(2-methoxy-1-methyl-ethylcarbamoyl)-4′-methyl-biphenyl-3-yl]-amide] | 5.62
7 | COCC(C)NC(=O)c1cc(NC(=O)C2CCCCC2)cc(-c2ccc(C)cc2)c1 (centres unmarked) [Compound 7, 5-(Cyclohexanecarbonyl-amino)-4′-methyl-biphenyl-3-carboxylic acid (2-methoxy-1-methyl-ethyl)-amide] | 5.49
8 | COCC(C)NC(=O)c1cc(NC(=O)c2ccc(C)cc2C)cc(-c2ccc(C)cc2)c1 (centres unmarked) [Compound 8, 5-(2,4-Dimethyl-benzoylamino)-4′-methyl-biphenyl-3-carboxylic acid (2-methoxy-1-methyl-ethyl)-amide] | 5.35
9 | COCC(C)NC(=O)c1cc(NC(=O)c2ccc(F)cc2Cl)cc(-c2ccc(C)cc2)c1 (centres unmarked) [Compound 9, 5-(2-Chloro-4-fluoro-benzoylamino)-4′-methyl-biphenyl-3-carboxylic acid (2-methoxy-1-methyl-ethyl)-amide] | 5.44
10 | COCC(C)NC(=O)c1cc(NC(=O)c2ccc(C(F)(F)F)cc2Cl)cc(-c2ccc(C)cc2)c1 (centres unmarked) [Compound 10, 5-(2-Chloro-4-trifluoromethyl-benzoylamino)-4′-methyl-biphenyl-3-carboxylic acid (2-methoxy-1-methyl-ethyl)-amide] | 5.87
11 | COCC(C)NC(=O)c1cc(NC(=O)c2cscn2)cc(-c2ccc(C)cc2)c1 (centres unmarked) [Compound 11, Thiazole-4-carboxylic acid [5-(2-methoxy-1-methyl-ethylcarbamoyl)-4′-methyl-biphenyl-3-yl]-amide] | 5.56
12 | COCC(C)NC(=O)c1cc(NC(=O)c2c(-c3ccccc3)noc2C)cc(-c2ccc(C)cc2)c1 (centres unmarked) [Compound 12, 5-Methyl-3-phenyl-isoxazole-4-carboxylic acid [5-(2-methoxy-1-methyl-ethylcarbamoyl)-4′-mcthyl-biphenyl-3-yl]-amide] | 5.59
13 | COCC(C)NC(=O)c1cc(NC(=O)c2nc(C)oc2C)cc(-c2ccc(C)cc2)c1 (centres unmarked) [Compound 13, 2,5-Dimethyl-oxazole-4-carboxylic acid [5-(2-methoxy-1-methyl-ethylcarbamoyl)-4′-methyl-biphenyl-3-yl]-amide] | 5.93
14 | COCC(C)NC(=O)c1cc(NC(=O)c2sccc2C)cc(-c2ccc(C)cc2)c1 (centres unmarked) [Compound 14, 3-Methyl-thiophene-2-carboxylic acid [5-(2-methoxy-1-methyl-ethylcarbamoyl)-4′-methyl-biphenyl-3-yl]-amide] | 5.35
15 | COCC(C)NC(=O)c1cc(NC(=O)c2cc(C)nn2C)cc(-c2ccc(C)cc2)c1 (centres unmarked) [Compound 15, 2,5-Dimethyl-2H-pyrazole-3-carboxylic acid [5-(2-methoxy-1-methyl-ethylcarbamoyl)-4′-methyl-biphenyl-3-yl]-amide] | 5.34
16 | COCC(C)NC(=O)c1cc(NC(=O)c2cc(C)on2)cc(-c2ccc(C)cc2)c1 (centres unmarked) [Compound 16, 5-Methyl-isoxazole-3-carboxylic acid [5-(2-methoxy-1-methyl-ethylcarbamoyl)-4′-methyl-biphenyl-3-yl]-amide] | 5.4
17 | COCC(C)NC(=O)c1cc(NC(=O)c2cscc2OC)cc(-c2ccc(C)cc2)c1 (centres unmarked) [Compound 17, 4-Methoxy-thiophene-3-carboxylic acid [5-(2-methoxy-1-methyl-ethylcarbamoyl)-4′-methyl-biphenyl-3-yl]-amide] | 5.87
18 | CCC(=O)N(C)c1cc(C(=O)NC(C)COC)cc(-c2ccc(C)cc2)c1 (centres unmarked) [Compound 18, 4′-Methyl-5-(methyl-propionyl-amino)-biphenyl-3-carboxylic acid (2-methoxy-1-methyl-ethyl)-amide] | 5.35
19 | CCC(=O)N(C)c1cc(C(=O)N[C@H](C)CN2CCOCC2)cc(-c2ccc(C)cc2)c1 [Compound 19, 4′-Methyl-5-(methyl-propionyl-amino)-biphenyl-3-carboxylic acid ((R)-1-methyl-2-morpholin-4-yl-ethyl)-amide] | 6.88
20 | CC(=O)N(C)c1cc(C(=O)NC(C)c2cnccn2)cc(-c2ccc(C)cc2)c1 (centres unmarked) [Compound 20, 5-(Acetyl-methyl-amino)-4′-methyl-biphenyl-3-carboxylic acid (1-pyrazin-2-yl-ethyl)-amide] | 6.05
21 | CCN(C(C)=O)c1cc(C(=O)NC(C)c2cnccn2)cc(-c2ccc(C)cc2)c1 (centres unmarked) [Compound 21, 5-(Acetyl-ethyl-amino)-4′-methyl-biphenyl-3-carboxylic acid (1-pyrazin-2-yl-ethyl)-amide] | 7.28
22 | COCC(=O)N(C)c1cc(C(=O)NC(C)c2cnccn2)cc(-c2ccc(C)cc2)c1 (centres unmarked) [Compound 22, 5-[(2-Methoxy-acetyl)-methyl-amino]-4′-methyl-biphenyl-3-carboxylic acid (1-pyrazin-2-yl-ethyl)-amide] | 6.69
23 | CCN(C(=O)COC)c1cc(C(=O)NC(C)c2cnccn2)cc(-c2ccc(C)cc2)c1 (centres unmarked) [Compound 23, 5-[Ethyl-(2-methoxy-acetyl)-amino]-4′-methyl-biphenyl-3-carboxylic acid (1-pyrazin-2-yl-ethyl)-amide] | 6.5
24 | CC(=O)N(c1cc(C(=O)NC(C)c2cnccn2)cc(-c2ccc(C)cc2)c1)c1ccncn1 (centres unmarked) [Compound 24, 5-(Acetyl-pyrimidin-4-yl-amino)-4′-methyl-biphenyl-3-carboxylic acid (1-pyrazin-2-yl-ethyl)-amide] | 6.31
25 | CCC(=O)N(c1cc(C(=O)NC(C)c2cnccn2)cc(-c2ccc(C)cc2)c1)c1ccncn1 (centres unmarked) [Compound 25, 4′-Methyl-5-(propionyl-pyrimidin-4-yl-amino)-biphenyl-3-carboxylic acid (1-pyrazin-2-yl-ethyl)-amide] | 6.16
26 | Cc1ccc(-c2cc(C(=O)NC(C)c3cnccn3)cc(N(C(=O)C(C)C)c3ccncn3)c2)cc1 (centres unmarked) [Compound 26, 5-(Isobutyryl-pyrimidin-4-yl-amino)-4′-methyl-biphenyl-3-carboxylic acid (1-pyrazin-2-yl-ethyl)-amide] | 6.99
